In PubChem BioAssay (NCI):
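Values below derive from 48-hour exposures of cells grown in 96-well plates, with endpoints linearly interpolated between the two concentrations bracketing the appropriate inhibition level. The concentration for 50% growth inhibition is given as GI50. TGI is the concentration that stops growth completely.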

Legend:
Experiment in all cases: NCI tumour cell line growth inhibition, 48 h
BT-549 breast = tested on: BT-549 breast
SF-268 CNS = tested on: SF-268 CNS
RXF 393 renal = tested on: RXF 393 renal
MALME-3M melanoma = tested on: MALME-3M melanoma
ACHN renal = tested on: ACHN renal
MCF7 breast = tested on: MCF7 breast
RPMI-8226 leukemia = tested on: RPMI-8226 leukemia
LOX IMVI melanoma = tested on: LOX IMVI melanoma
HOP-62 NSCLC = tested on: HOP-62 NSCLC
SK-MEL-2 melanoma = tested on: SK-MEL-2 melanoma
NCI/ADR-RES ovarian = tested on: NCI/ADR-RES ovarian
HCC-2998 colon = tested on: HCC-2998 colon
786-0 renal = tested on: 786-0 renal
NCI-H226 lung = tested on: NCI-H226 lung
U251 CNS = tested on: U251 CNS
NCI-H460 lung = tested on: NCI-H460 lung
K-562 leukemia = tested on: K-562 leukemia
UACC-62 melanoma = tested on: UACC-62 melanoma
SN12C renal = tested on: SN12C renal
SNB-19 CNS = tested on: SNB-19 CNS
OVCAR-4 ovarian = tested on: OVCAR-4 ovarian
COLO 205 colon = tested on: COLO 205 colon
HT29 colon = tested on: HT29 colon
OVCAR-5 ovarian = tested on: OVCAR-5 ovarian
SF-295 CNS = tested on: SF-295 CNS
SNB-75 CNS = tested on: SNB-75 CNS
MDA-MB-435 = tested on: MDA-MB-435
NCI-H23 lung = tested on: NCI-H23 lung
OVCAR-8 ovarian = tested on: OVCAR-8 ovarian
IGROV1 ovarian = tested on: IGROV1 ovarian
MOLT-4 leukemia = tested on: MOLT-4 leukemia
UACC-257 melanoma = tested on: UACC-257 melanoma
HCT-15 colon = tested on: HCT-15 colon
SK-OV-3 ovarian = tested on: SK-OV-3 ovarian
HOP-92 NSCLC = tested on: HOP-92 NSCLC
TK-10 renal = tested on: TK-10 renal
MDA-MB-231 breast = tested on: MDA-MB-231 breast
NCI-H522 lung = tested on: NCI-H522 lung
SK-MEL-5 melanoma = tested on: SK-MEL-5 melanoma
OVCAR-3 ovarian = tested on: OVCAR-3 ovarian
A549 NSCLC = tested on: A549 NSCLC
SR leukemia = tested on: SR leukemia
KM12 colon = tested on: KM12 colon
SF-539 CNS = tested on: SF-539 CNS
A498 renal = tested on: A498 renal
UO-31 renal = tested on: UO-31 renal
HL-60(TB) leukemia = tested on: HL-60(TB) leukemia
T-47D breast = tested on: T-47D breast
SK-MEL-28 melanoma = tested on: SK-MEL-28 melanoma
CCRF-CEM leukemia = tested on: CCRF-CEM leukemia
M14 melanoma = tested on: M14 melanoma
PC-3 prostate = tested on: PC-3 prostate
SW-620 colon = tested on: SW-620 colon
DU-145 prostate = tested on: DU-145 prostate
HCT-116 colon = tested on: HCT-116 colon

SMILES: COc1cc(-c2cncn2-c2ccc(-c3nc4ccc(F)cc4s3)cc2)ccc1F
- GI50 (BT-549 breast): 11.5 µM
- TGI (BT-549 breast): 79 µM
- GI50 (SF-268 CNS): 31.2 µM
- TGI (SF-268 CNS): > 100 µM
- GI50 (RXF 393 renal): 13.5 µM
- TGI (RXF 393 renal): > 100 µM
- GI50 (MALME-3M melanoma): 11.1 µM
- TGI (MALME-3M melanoma): > 100 µM
- GI50 (ACHN renal): 29.1 µM
- TGI (ACHN renal): > 100 µM
- GI50 (MCF7 breast): 23.5 µM
- TGI (MCF7 breast): > 100 µM
- GI50 (RPMI-8226 leukemia): 4.11 µM
- TGI (RPMI-8226 leukemia): > 100 µM
- GI50 (LOX IMVI melanoma): 35.9 µM
- TGI (LOX IMVI melanoma): > 100 µM
- GI50 (HOP-62 NSCLC): 40.7 µM
- TGI (HOP-62 NSCLC): > 100 µM
- GI50 (SK-MEL-2 melanoma): 39.7 µM
- TGI (SK-MEL-2 melanoma): > 100 µM
- GI50 (NCI/ADR-RES ovarian): 30.6 µM
- TGI (NCI/ADR-RES ovarian): > 100 µM
- GI50 (HCC-2998 colon): > 100 µM
- TGI (HCC-2998 colon): > 100 µM
- GI50 (786-0 renal): 36.1 µM
- TGI (786-0 renal): > 100 µM
- GI50 (NCI-H226 lung): 49.3 µM
- TGI (NCI-H226 lung): > 100 µM
- GI50 (U251 CNS): 12.6 µM
- TGI (U251 CNS): > 100 µM
- GI50 (NCI-H460 lung): 5.7 µM
- TGI (NCI-H460 lung): 20.7 µM
- GI50 (K-562 leukemia): 3.93 µM
- TGI (K-562 leukemia): > 100 µM
- GI50 (UACC-62 melanoma): 8.67 µM
- TGI (UACC-62 melanoma): > 100 µM
- GI50 (SN12C renal): 31.9 µM
- TGI (SN12C renal): > 100 µM
- GI50 (SNB-19 CNS): > 100 µM
- TGI (SNB-19 CNS): > 100 µM
- GI50 (OVCAR-4 ovarian): 11.4 µM
- TGI (OVCAR-4 ovarian): > 100 µM
- GI50 (COLO 205 colon): 56.8 µM
- TGI (COLO 205 colon): > 100 µM
- GI50 (HT29 colon): 10.8 µM
- TGI (HT29 colon): > 100 µM
- GI50 (OVCAR-5 ovarian): > 100 µM
- TGI (OVCAR-5 ovarian): > 100 µM
- GI50 (SF-295 CNS): 12.7 µM
- TGI (SF-295 CNS): > 100 µM
- GI50 (SNB-75 CNS): 20.6 µM
- TGI (SNB-75 CNS): 52.2 µM
- GI50 (MDA-MB-435): 17.1 µM
- TGI (MDA-MB-435): > 100 µM
- GI50 (NCI-H23 lung): 8.25 µM
- TGI (NCI-H23 lung): > 100 µM
- GI50 (OVCAR-8 ovarian): 15.2 µM
- TGI (OVCAR-8 ovarian): > 100 µM
- GI50 (IGROV1 ovarian): 15.4 µM
- TGI (IGROV1 ovarian): 47.7 µM
- GI50 (MOLT-4 leukemia): 3.41 µM
- TGI (MOLT-4 leukemia): > 100 µM
- GI50 (UACC-257 melanoma): 4.11 µM
- TGI (UACC-257 melanoma): > 100 µM
- GI50 (HCT-15 colon): 82.3 µM
- TGI (HCT-15 colon): > 100 µM
- GI50 (SK-OV-3 ovarian): > 100 µM
- TGI (SK-OV-3 ovarian): > 100 µM
- GI50 (HOP-92 NSCLC): 5.47 µM
- TGI (HOP-92 NSCLC): 91.8 µM
- GI50 (TK-10 renal): 38.8 µM
- TGI (TK-10 renal): > 100 µM
- GI50 (MDA-MB-231 breast): 32.2 µM
- TGI (MDA-MB-231 breast): > 100 µM
- GI50 (NCI-H522 lung): 9.9 µM
- TGI (NCI-H522 lung): 37.2 µM
- GI50 (SK-MEL-5 melanoma): 12.1 µM
- TGI (SK-MEL-5 melanoma): > 100 µM
- GI50 (OVCAR-3 ovarian): 5.71 µM
- TGI (OVCAR-3 ovarian): 37.3 µM
- GI50 (A549 NSCLC): 12.3 µM
- TGI (A549 NSCLC): > 100 µM
- GI50 (SR leukemia): 4.99 µM
- TGI (SR leukemia): > 100 µM
- GI50 (KM12 colon): 6.4 µM
- TGI (KM12 colon): > 100 µM
- GI50 (SF-539 CNS): 75.9 µM
- TGI (SF-539 CNS): > 100 µM
- GI50 (A498 renal): 0.0432 µM
- TGI (A498 renal): 16.9 µM
- GI50 (UO-31 renal): 16.5 µM
- TGI (UO-31 renal): > 100 µM
- GI50 (HL-60(TB) leukemia): 2.5 µM
- TGI (HL-60(TB) leukemia): 7.37 µM
- GI50 (T-47D breast): 7.98 µM
- TGI (T-47D breast): > 100 µM
- GI50 (SK-MEL-28 melanoma): 35.1 µM
- TGI (SK-MEL-28 melanoma): > 100 µM
- GI50 (CCRF-CEM leukemia): 6.92 µM
- TGI (CCRF-CEM leukemia): > 100 µM
- GI50 (M14 melanoma): 33.4 µM
- TGI (M14 melanoma): > 100 µM
- GI50 (PC-3 prostate): 3.47 µM
- TGI (PC-3 prostate): > 100 µM
- GI50 (SW-620 colon): 7.81 µM
- TGI (SW-620 colon): > 100 µM
- GI50 (DU-145 prostate): 14.3 µM
- TGI (DU-145 prostate): 73.3 µM
- GI50 (HCT-116 colon): 4.36 µM
- TGI (HCT-116 colon): 38.7 µM
